Measured values taken from patent US11028051B2, “Tetrahydroquinoline-based bromodomain inhibitors” (St. Jude Children's Research Hospital, priority 2016, dated 2021).

Key:
Assay in all cases: competitive TR-FRET assay, BET-BD with acetylated peptide ligand
Assay type in all cases: binding
BRD2-BD1 = BRD2-BD1 (Homo sapiens (Human), UniProt P25440); details: BRD2-BD1; Table 11 additional modifications; read-out: 2.1 EC50
Method: (§1) Inhibitor potency was determined using a competitive TR-FRET assay as detailed herein, measuring interaction of the respective BET-BD with an acetylated peptide ligand (Table 2).

BRD2-BD2 = BRD2-BD2 (Homo sapiens (Human), UniProt P25440); details: for EC50: BRD2-BD2, Table 11 additional modifications, read-out: 2.2 EC50; for 2.1/2.2: ratio of BRD2-BD1 EC50 to BRD2-BD2 EC50 (selectivity)
BRD2-BD2, sequence (P25440 344-453): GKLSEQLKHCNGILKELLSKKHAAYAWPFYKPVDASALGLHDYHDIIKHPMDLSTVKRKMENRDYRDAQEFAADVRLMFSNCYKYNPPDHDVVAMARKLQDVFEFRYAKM
Method: as §1

BRDT = BRDT (Homo sapiens, UniProt Q58F21); details: BRDT; Table 11 additional modifications; read-out: BRDT EC50
Method: as §1

BRD3-BD1 = BRD3-BD1 (Homo sapiens (Human), UniProt Q15059); details: BRD3-BD1; Table 11 additional modifications; read-out: 3.1 EC50
BRD3-BD1, sequence (Q15059 34-140): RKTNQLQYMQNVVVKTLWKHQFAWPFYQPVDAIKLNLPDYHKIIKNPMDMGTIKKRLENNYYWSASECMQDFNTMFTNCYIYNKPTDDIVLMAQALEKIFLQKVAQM
Method: as §1

BRD4-BD1 = BRD4-BD1 (Homo sapiens (Human), UniProt O60885); details: BRD4-BD1; Table 11 additional modifications; read-out: 4.1 EC50
Method: as §1

BRD2-BD1, sequence (P25440 74-180): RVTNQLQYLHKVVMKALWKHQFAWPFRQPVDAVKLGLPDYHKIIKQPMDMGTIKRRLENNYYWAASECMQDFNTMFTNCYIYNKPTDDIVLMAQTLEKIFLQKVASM

| Structure (SMILES) | EC50 (BRD2-BD1) [nM] | EC50 (BRD2-BD2) [nM] | 2.1/2.2 (BRD2-BD2) | EC50 (BRDT) [nM] | EC50 (BRD3-BD1) [nM] | EC50 (BRD4-BD1) [nM] |
| --- | --- | --- | --- | --- | --- | --- |
| CC(=O)N1c2ccc(-c3cccc(NC(=O)C4CCCCC4)c3)cc2[C@H](NC(=O)OC(C)C)C[C@@H]1C [compound 99] | 940 | 120 | 12 | 730 | 250 | 1000 |
| CC(=O)N1c2ccc(-c3cccc(NC(=O)C4CC4)c3)cc2[C@H](NC(=O)OC(C)C)C[C@@H]1C [compound 94] | 2000 | 170 | 1.2 | 84000 | 430 | 1400 |
| COC(=O)c1ccc(N[C@@H]2C[C@H](C)N(C(C)=O)c3ccc(-c4cccc(OCCN5CCOCC5)c4)cc32)cc1 [compound 166] | 130 | 20 | 6.5 | 280 | 150 | 640 |
| CCC(=O)Nc1cccc(-c2ccc3c(c2)[C@H](NC(=O)OC(C)C)C[C@H](C)N3C(C)=O)c1 [compound 115] | 370 | 40 | 7.2 | 330 | 90 | 160 |
| CC(=O)N1c2ccc(-c3cccc(NC(=O)C4CCC(C)CC4)c3)cc2[C@H](NC(=O)OC(C)C)C[C@@H]1C (stereo partly drawn) [compound 102] | 4800 | 430 | 40 | 1200 | 530 | 3800 |
| CC(=O)N1c2ccc(-c3ccn(C)n3)cc2[C@H](Nc2ccccc2OC(F)(F)F)C[C@@H]1C [compound 172] | 8200 | 640 | 6.3 | 12000 | 12000 | 17000 |
| CC(=O)N1c2ccc(-c3cccc(NS(C)(=O)=O)c3)cc2[C@H](NC(=O)OC(C)C)C[C@@H]1C [compound 93] | 580 | 120 | 4.6 | 1200 | 150 | 380 |
| CC(=O)N1c2ccc(-c3cccc(NCC(C)C)c3)cc2[C@H](NC(=O)OC(C)C)C[C@@H]1C [compound 96] | 2600 | 790 | 11 | 6200 | 830 | 1900 |
| CC(=O)N1c2ccc(-c3cc[nH]n3)cc2[C@H](Nc2ccccc2OC(F)(F)F)C[C@@H]1C [compound 171] | > 53000 | 440 | 140 | > 53000 | 23000 | 31000 |
| CC(=O)N1c2ccc(-c3cccc(NC(=O)c4ccc(C)cc4)c3)cc2[C@H](NC(=O)OC(C)C)C[C@@H]1C [compound 95] | 3100 | 420 | 1.2 | 510 | 380 | 2000 |
| CCCNc1cccc(-c2ccc3c(c2)[C@H](NC(=O)OC(C)C)C[C@H](C)N3C(C)=O)c1 [compound 111] | 1900 | 520 | 0.091 | 3900 | 650 | 1800 |
| CCCCNc1cccc(-c2ccc3c(c2)[C@H](NC(=O)OC(C)C)C[C@H](C)N3C(C)=O)c1 [compound 114] | 790 | 50 | 9.1 | 52000 | 120 | 470 |
| CC(=O)N1c2ccc(-c3ccnn3C)cc2[C@H](NC(=O)OC(C)C)C[C@@H]1C [compound 97] | 100000 | 2500 | 4.8 | 40000 | 7800 | 20000 |
| CC(=O)N1c2ccc(-c3cccc(NCC4CCCCC4)c3)cc2[C@H](NC(=O)OC(C)C)C[C@@H]1C [compound 112] | 7200 | 2500 | 3.6 | 4400 | 2100 | 5000 |
| CCCCN(CCCC)c1cccc(-c2ccc3c(c2)[C@H](Nc2ccc(C(=O)OC)cc2)C[C@H](C)N3C(C)=O)c1 [compound 143] | 8000 | 1100 | 93 | 34000 | 11000 | – |
| CC(=O)N1c2ccc(-c3cccc(N(CCC(C)C)CCC(C)C)c3)cc2[C@H](Nc2ccccc2OC(F)(F)F)C[C@@H]1C [compound 148] | 90000 | 34000 | 16 | > 90000 | > 90000 | – |
| CC(=O)N1c2ccc(-c3ccnn3C)cc2[C@H](Nc2ccccc2OC(F)(F)F)C[C@@H]1C [compound 145] | 19000 | 390 | 5.0 | > 58000 | 21000 | – |
| CC(=O)N1c2ccc(-c3cccc(N(CC4CC4)CC4CC4)c3)cc2[C@H](Nc2ccccc2OC(F)(F)F)C[C@@H]1C [compound 152] | 79000 | 8400 | – | > 79000 | 78000 | – |
| COc1cc(F)ccc1N[C@@H]1C[C@H](C)N(C(C)=O)c2ccc(-c3cccc(CNCC(F)(F)F)c3)cc21 [compound 169] | > 30000 | – | – | > 30000 | > 30000 | > 30000 |
| COC(=O)c1ccc(N[C@@H]2C[C@H](C)N(C(C)=O)c3ccc(-c4cccc(NCCC(C)C)c4)cc32)cc1 [compound 142] | 2500 | 230 | 52 | 8300 | 2500 | – |
| CCCCCN(CCCCC)c1cccc(-c2ccc3c(c2)[C@H](Nc2ccccc2OC(F)(F)F)C[C@H](C)N3C(C)=O)c1 [compound 150] | 72000 | 22000 | 13 | > 72000 | > 72000 | – |

Continued, values first:

| EC50 (BRD2-BD1) [nM] | EC50 (BRD2-BD2) [nM] | 2.1/2.2 (BRD2-BD2) | EC50 (BRDT) [nM] | EC50 (BRD3-BD1) [nM] | EC50 (BRD4-BD1) [nM] | Structure (SMILES) |
| --- | --- | --- | --- | --- | --- | --- |
| 2700 | 100 | 27 | 2900 | 1700 | 5500 | CC(=O)Nc1cccc(-c2ccc3c(c2)[C@H](Nc2ccc(S(=O)(=O)N(C)C)cc2)C[C@H](C)N3C(C)=O)c1 [compound 175] |
| 880 | 20 | 44 | 1200 | 290 | 590 | CC(=O)Nc1cccc(-c2ccc3c(c2)[C@H](Nc2cccc4ncccc24)C[C@H](C)N3C(C)=O)c1 [compound 31] |
| > 4900 | 10000 | – | > 4900 | > 4900 | > 4900 | CC(=O)Nc1cccc(-c2ccc3c(c2)[C@H](Nc2cccc4cccnc24)C[C@H](C)N3C(C)=O)c1 [compound 33] |
| 410 | 20 | 21 | 890 | 510 | 5100 | CC(=O)Nc1cccc(-c2ccc3c(c2)[C@H](Nc2ccc(-c4nnco4)cc2)C[C@H](C)N3C(C)=O)c1 [compound 34] |
| 470 | 23 | 20 | > 36000 | 78 | 1100 | CC(=O)Nc1cccc(-c2ccc3c(c2)[C@H](Nc2ccc(CN)cc2)C[C@H](C)N3C(C)=O)c1 [compound 26] |
| 80 | 12 | 6.7 | 140 | 130 | 2500 | CC(=O)Nc1cccc(-c2ccc3c(c2)[C@H](Nc2ccc(-c4nnc(C)o4)cc2)C[C@H](C)N3C(C)=O)c1 [compound 35] |
| 1300 | 120 | 14 | 1600 | 230 | 1100 | CC(=O)N1c2ccc(-c3cccc(NC(=O)Cc4ccccc4)c3)cc2[C@H](NC(=O)OC(C)C)C[C@@H]1C [compound 110] |
| > 23000 | > 23000 | – | > 23000 | > 23000 | > 23000 | CC(=O)Nc1cccc(-c2ccc3c(c2)[C@H](Nc2cccc4ccccc24)C[C@H](C)N3C(C)=O)c1 [compound 32] |
| 1200 | 160 | 11 | 490 | 170 | 810 | CC(=O)N1c2ccc(-c3cccc(NC(=O)c4ccccc4)c3)cc2[C@H](NC(=O)OC(C)C)C[C@@H]1C [compound 107] |
| 600 | 100 | 39 | 1200 | 230 | 520 | CC(=O)N1c2ccc(-c3cccc(NCc4ccccc4)c3)cc2[C@H](NC(=O)OC(C)C)C[C@@H]1C [compound 117] |
| 2200 | – | 44 | 3300 | 3000 | > 30000 | COC(=O)c1ccc(N[C@@H]2C[C@H](C)N(C(C)=O)c3ccc(-c4cccc(NC(C)=O)c4)cc32)c(C)c1 [compound 160] |
| 1300 | 140 | 10 | 3600 | 1000 | – | CC(=O)N(C)c1cccc(-c2ccc3c(c2)[C@H](Nc2ccc(Cl)cc2)C[C@H](C)N3C(C)=O)c1 [compound 149] |
| 21000 | 1400 | 22.9 | > 82000 | 31000 | – | CC(=O)N1c2ccc(-c3cccc(-n4cccn4)c3)cc2[C@H](Nc2ccccc2OC(F)(F)F)C[C@@H]1C [compound 140] |
| 4600 | 90 | 36 | 8700 | 1800 | – | C#CCCCC(=O)Nc1cccc(-c2ccc3c(c2)[C@H](Nc2ccc(C(=O)OC)cc2)C[C@H](C)N3C(C)=O)c1 [compound 138] |
